Measurements as given in patent US20060110804A1, “Method of treating an organ for transplantation” (priority 2004, published 2006).
Entries after “also recorded” stand apart in the source; their conditions may differ. Where two headings read alike, the source gives them in different places.

Experiments:
liver grafts [1] = experiment: Bile salts and phospholipids in bile of ex vivo reperfused liver grafts (enzyme inhibition assay); parameters: species or system rat; conditions: hemin-treated C16 grafts, 30 minute reperfusion, concentration of 5 μmol/L or less
Protocol: To examine whether bilirubin and/or CO could recover the HO-1-inducing effect inhibited by ZnPP, a strong HO activity inhibitor, the following experiment was carried out. The grafts were reperfused with carbogen-saturated Krebs-Henseleit buffer (pH 7.4, 37° C.) supplemented with bilirubin (Sigma Chemical, Co.) and/or CO in combination with 1 μmol/L ZnPP. […] The total amounts of bile salts and phospholipids in bile samples were measured by enzyme inhibition assay according to a reported method (see Document 23).
An attempt was made to examine dose-dependent effects of bilirubin and/or CO during co-perfusion. […] After being cold-preserved for 16 hours, the hemin-treated grafts were reperfused for 30 minutes in the presence of ZnPP using reperfusate containing various concentrations of bilirubin and/or CO, and then measured for the levels of bile output, bile salts and phospholipids in bile from the grafts, which were determined in percentages relative to those obtained by reperfusion in the absence of ZnPP.

liver grafts [2] = experiment: Bile output of cold-preserved liver grafts during ex vivo reperfusion; parameters: species or system rat; conditions: for bile output vs bilirubin-free control: hemin-untreated C16 grafts, 5 μmol/L bilirubin
Protocol: The rats injected with hemin or physiological saline were anesthetized by intraperitoneal injection of pentobarbital sodium (40 mg/kg body weight) and a PE-10 catheter for bile sample collection was inserted into the common bile duct of each rat. A 16-gauge catheter was inserted into the portal vein and 20 ml lactated Ringer's solution kept at 4° C. was passed through the catheter. Subsequently, rat livers were perfused with 20 ml University of Wisconsin solution (UW solution) of 4° C., excised and then preserved in the same solution at 4° C. for 16 hours. […] After cold preservation for 16 hours, each liver graft was reperfused via the portal vein with 95% oxygen-5% carbon dioxide-saturated Krebs-Henseleit buffer (pH 7.4, 37° C.) at 4 ml/min/g liver in the presence of 30 μmol/L sodium taurocholate (see Document 4).
In the hemin-treated liver grafts from Example 1, after 16-hour cold preservation (Hemin/C16), bile samples were collected from the common bile duct every 5 minutes during 40 minute reperfusion. […] The hemin-untreated grafts receiving no cold preservation (Control) and 16-hour cold preservation (C16) were also provided for the same measurement.
The grafts were reperfused with carbogen-saturated Krebs-Henseleit buffer (pH 7.4, 37° C.) supplemented with bilirubin (Sigma Chemical, Co.) and/or CO in combination with 1 μmol/L ZnPP. […] Similarly, hemin-untreated (a) and hemin-treated (b) grafts were provided in the absence of ZnPP for use as controls.
The same experiment as described in Example 4 was repeated, except that the doses of bilirubin and/or CO were varied. After being cold-preserved for 16 hours, the hemin-treated grafts were reperfused for 30 minutes in the presence of ZnPP using reperfusate containing various concentrations of bilirubin and/or CO, and then measured for the levels of bile output, bile salts and phospholipids in bile from the grafts, which were determined in percentages relative to those obtained by reperfusion in the absence of ZnPP.

liver grafts [3] = experiment: CO fluxes in hepatic venous perfusate of ex vivo liver grafts (spectrophotometer); parameters: species or system rat
Protocol: (§1) Male Wistar rats of 190-230 g were allowed to take pellet chow and water without any restriction and then fasted for 6 hours. Subsequently, the rats were intraperitoneally injected with 40 μmol/kg hemin, a strong HO-1 inducer, and then fasted for 18 hours. […] As a hemin-untreated control, rats injected with physiological saline were fasted for 24 hours and then used for the experiment.
(§2) The rats injected with hemin or physiological saline were anesthetized by intraperitoneal injection of pentobarbital sodium (40 mg/kg body weight) and a PE-10 catheter for bile sample collection was inserted into the common bile duct of each rat. A 16-gauge catheter was inserted into the portal vein and 20 ml lactated Ringer's solution kept at 4° C. was passed through the catheter. Subsequently, rat livers were perfused with 20 ml University of Wisconsin solution (UW solution) of 4° C., excised and then preserved in the same solution at 4° C. for 16 hours. […]
(§3) The grafts prepared in Example 1 were measured for HO-1 protein expression by Western blot analysis, as described in an earlier document (see Document 20). CO fluxes in hepatic venous flow were also measured with a spectrophotometer according to a previously reported method of the inventors (see Document 16). […]

liver grafts [4] = experiment: LDH released into hepatic venous perfusate of ex vivo reperfused liver grafts (liver cell damage); parameters: species or system rat
Protocol: As in the case of Example 5, after being cold-preserved for 16 hours, the hemin-treated grafts were reperfused for 30 minutes in the presence of ZnPP using reperfusate containing varying concentrations of bilirubin, and then measured for the amount of lactate dehydrogenase (LDH) released into the hepatic venous perfusate, which was indicative of liver cell damage in the grafts. For use as controls, hemin-untreated grafts receiving 16-hour cold preservation (C16) and hemin-treated grafts receiving 16-hour cold preservation (Hemin/C16) were provided in the absence of ZnPP. The amount of LDH was measured as described in an earlier document (see Document 24). […] The grafts were divided into the following test groups: (a) receiving 5 minute reperfusion with the bilirubin-containing buffer and subsequent 35 minute reperfusion in the absence of bilirubin, (b) receiving 15 minute reperfusion with the bilirubin-containing buffer and subsequent 25 minute reperfusion in the absence of bilirubin, and (c) receiving 40 minute perfusion with the bilirubin-containing buffer. As a control group (d), the cold-preserved grafts received only bilirubin-free perfusion for 40 minutes. Bile output was then measured over time for each group. Further, FIGS. 6(B) and (C) show the relationship between reperfusion time with the bilirubin-containing buffer and bile output from the grafts and the relationship between reperfusion time and venous LDH concentration, respectively.

HO-1 protein = HO-1 protein expression in liver grafts by Western blot analysis; parameters: species or system rat; conditions: hemin-treated (40 μmol/kg i.p.) vs hemin-untreated grafts
Protocol: as §1, §2, §3

liver grafts [5] = experiment: Bilirubin-IXα concentration in bile of ex vivo reperfused liver grafts (ELISA, antibody 24G7); parameters: species or system rat
Protocol: as §2, with “hours. Since acute oxidative stress would eventually occur, as judged by intracellular hydroperoxide production which occurred concurrently with a reduction of bile formation, a time period of 16 hours was selected for preservation purposes.” for “hours.”
In the hemin-treated liver grafts from Example 1, after 16-hour cold preservation (Hemin/C16), bile samples were collected from the common bile duct every 5 minutes during 40 minute reperfusion. The bile samples collected at 30 minutes after initiation of reperfusion were also measured for their bilirubin-IXα concentration by enzyme-linked immunosorbent assay detection using the monoclonal antibody 24G7 capable of recognizing both conjugated and unconjugated bilirubin fractions, as described in earlier documents (see Documents 21 and 22). […]

[6] = hemin-treated rats, n=4; cited from earlier work
liver parenchymal cells = experiment: Immunohistological detection of bilirubin in graft tissue with monoclonal antibody 24G7; format: in vivo, rat
Protocol: To examine the effect of bilirubin washing on the accessibility of bilirubin to graft tissues, immunohistological detection of bilirubin was performed using the anti-bilirubin-IXα monoclonal antibody 24G7 according to a previously reported method of the inventors (see Document 27). As observed in the grafts perfused with bilirubin-free lactated Ringer's solution (A), the monoclonal antibody 24G7 triggered an immune reaction primarily in liver non-parenchymal cells including Kupffer cells.

liver grafts [7] = experiment: Liver isograft transplantation model: blood levels of AST, ALT and LDH (graft injury); format: in vivo, rat; conditions: washing with irrigation solution containing a higher concentration of bilirubin than 5 to 10 μmol/L
Protocol: (§4) To examine in vivo effects of HO-1 preconditioning, a model experiment for liver isograft transplantation was carried out. Male inbred Lewis rats of 220-280 g were allowed to drink water without any restriction, fasted for 24 hours before the experiment, and provided for use as donors and recipients for liver transplantation. In HO-1 preconditioning groups, the rats were hemin-treated at 18 hours before graft preparation in the same manner as used in the ex vivo experiment of Example 1. Liver transplantation was performed according to the technique developed by Kamada (see Document 25) with minor modifications. More specifically, the donors were anesthetized by intraperitoneal injection of pentobarbital sodium (40 mg/kg body weight) and then laparotomized. […]
(§5) In light of Example 7 showing that short-term washing with bilirubin was effective for recovery of post-reperfusion stasis and cell injury in the liver grafts cold-preserved for 16 hours, further attempts were made to examine the in vivo effect of bilirubin washing against post-transplantation injury in the cold-preserved grafts. […] The level of bile output was measured at 30 minutes and 24 hours after initiation of reperfusion. To determine the degree of graft injury at 24 hours after initiation of reperfusion, blood levels of aspartate aminotransferase (AST), alanine aminotransferase (ALT) and LDH were measured in a standard manner. […]

liver grafts [8] = experiment: Liver isograft transplantation model: bile output after initiation of reperfusion; format: in vivo, rat; conditions: grafts washed with Ringer's solution containing a higher concentration of bilirubin than 5 to 10 μmol/L
Protocol: as §4, §5

liver grafts [9] = format: in vivo; conditions: grafts washed with 50 μmol/L bilirubin-containing Ringer's solution
Protocol: as §4, §5

[10] = hemin-treated grafts, 16-hour cold preservation, reperfused with 1 μmol/L of the protoporphyrin

[C-]#[O+] [CO, carbon monoxide]
percentage of bile salts in bile relative to reperfusion in the absence of ZnPP (liver grafts [1]): no recovery
percentage of phospholipids in bile relative to reperfusion in the absence of ZnPP (liver grafts [1]): no recovery
recovery of ZnPP-induced reduction of bile output (liver grafts [2]; hemin-treated C16 grafts, 30 minute co-perfusion, 1 μmol/L ZnPP, 5 μmol/L of each test substance): could not achieved
percentage of bile output relative to reperfusion in the absence of ZnPP (liver grafts [2]; hemin-treated C16 grafts, ZnPP, 30 minute reperfusion, concentration of 5 μmol/L or less): no recovery

copper protoporphyrin-IX [CuPP]
bile output (liver grafts [2]; [10]): substantially the same bile output

hemin
venous CO fluxes (liver grafts [3]; hemin-treated (40 μmol/kg i.p.) vs hemin-untreated grafts): significant increases
increase in hepatic venous CO fluxes (liver grafts [3]; hemin-treated grafts, 16-hour cold preservation with or without 30 minute reperfusion, vs hemin-untreated grafts): ~3 fold
bile output (liver grafts [2]; hemin-treated grafts after 16-hour cold preservation (Hemin/C16) vs hemin-untreated cold-preserved grafts (C16)): higher plateau; also recorded: increase in bile output
time of bile output recovery after initiation of reperfusion (liver grafts [2]; hemin-treated grafts, 16-hour cold preservation (Hemin/C16)): 10 min
venous LDH release (liver grafts [4]; hemin-treated control, 16-hour cold preservation (Hemin/C16), no ZnPP): almost complete inhibition
HO-1 expression (HO-1 protein): significant increases
bilirubin fluxes in bile, relative to hemin-untreated group (liver grafts [5]; hemin-treated, cold-preserved 16 hours, reperfused 30 minutes): about 1.5 fold
plasma bilirubin concentration in portal blood [6]: 3.2 ± 0.8 µmol/L

C=CC1=C(C)c2cc3[n-]c(cc4[n-]c(cc5nc(cc1n2)C(C)=C5C=C)c(C)c4CCC(=O)O)c(CCC(=O)O)c3C.[Zn+2] [ZnPP, zinc protoporphyrin-IX]
bile output (liver grafts [2]; [10]): reduced bile output; also recorded: canceled the effect of hemin treatment
venous LDH release (liver grafts [4]): significantly increased
bilirubin levels in bile (liver grafts [5]; hemin-treated C16 grafts, co-perfusion with 1 μmol/L ZnPP compared to CuPP): significant decrease

C=CC1=C(C)/C(=C/c2[nH]c(Cc3[nH]c(/C=C4\NC(=O)C(C)=C4C=C)c(C)c3CCC(=O)O)c(CCC(=O)O)c2C)NC1=O [bilirubin]
adverse effect on bile secretion or cell survival (liver grafts [2]; hemin-treated C16 grafts, 30 minutes, 5 μmol/L bilirubin in the presence of ZnPP): no adverse effect
bile output vs bilirubin-free control (liver grafts [2]; 15 minute reperfusion then 25 minutes without bilirubin): significant decrease
bile output vs bilirubin-free control (liver grafts [2]; 40 minute perfusion): significant decrease
LDH release (graft damage) (liver grafts [4]; hemin-untreated C16 grafts, prolonged reperfusion with 5 μmol/L bilirubin-containing buffer): increases in LDH release
accessibility of bilirubin to liver parenchymal cells (immune reaction) (liver parenchymal cells; grafts washed with bilirubin-containing Ringer's solution): highly absorbed into liver parenchymal cells
accessibility of bilirubin to liver parenchymal cells (immune reaction) (liver parenchymal cells; grafts washed with bilirubin-containing Ringer's solution supplemented with PPF): accessibility of bilirubin was canceled
cell injury (sAST, sALT, sLDH) at 24 hours after transplantation (liver grafts [7]): exacerbation of cell injury
bile output after transplantation (liver grafts [8]): cholestasis occurred
rats able to survive for 24 hours after transplantation (liver grafts [9]): None
